According to US5854010A, “Bioassay for detecting 2,3,7,8-tetrachlorodibenzo-para-dioxin and TCDD-like compounds and novel recombinant cell line useful therefor” (priority 1997, dated 1998):

What was measured:
H1L1.1 cells = assay: Dose response of luciferase induction, 24 h (FIGS. 3-6, Table 3); assay type: cell-based, mouse; conditions: for Induced luciferase activity, TCDD reference: 1 nM TCDD in DMSO
Description: The graph of FIG. 3 illustrates the dose dependence of luciferase induction in the mouse H1L1.1 cells measured following […] of the cells to increasing concentrations of TCDD or other toxic compounds (which others are discussed in more detail below).
More particularly, the stable cell clones for the mouse H1L1.1 cells (about 90% confluent) were plated into six-well microplates (purchased from Corning) and incubated for 24 hours with the indicated concentration of the particular toxin solubilized in DMSO. Then, the cells were lysed with 100 μl of lysis buffer and luciferase activity was determined as described above. Values represent the mean ± the standard evaluation of at least triplicate determinations.
As set out in Table 3, the responsiveness and sensitivity of the mouse H1L1.1 cells was compared to the responsiveness and sensitivity of certain other published PCDH cell bioassay systems. The other systems were a recombinant HepG2 (101L) cell line that induces firefly luciferase (see, Postlind et al., supra), a recombinant Hepa1 (T13) cell line that induces PAP activity (see El-Fouly et al., supra), and a rat H4IIE cell line that induces EROD activity (see, Kennedy et al., supra). The ED50 values were calculated by probit analysis of the dose-response data.
As set out in the graphs of FIGS. 3-6, since one use of the stably transfected mouse H1L1.1 cell lines is for detection and relative quantitative analysis of TCDD and various dioxin-like compounds (i.e., AhR ligands), the ability of various compounds besides TCDD to induce luciferase activity in the mouse H1L1.1 cells was examined. The experiments performed to determine the dose-response curves for the toxins other than TCDD set out in the graphs of FIGS. 3-6 were performed in essentially the same manner as the experiments described above to determine the dose response curve of TCDD set out in the graph of FIG. 3.
Specifically, with respect to the data illustrated in the graph of FIG. 3, cells were incubated with increasing concentrations of test chemical and luciferase activity determined after 24 hours.
It should be noted that the low numerical values of luciferase activity from induction by various PCBs reported in FIGS. 4 and 5, compared to the values reported in the other figures, are not due to actual low levels of luciferase induction, but to the fact that the detection of luminescence in these experiments was performed using a different instrument from that used in the other experiments.
However, the relative magnitude of luciferase induction by the mono-ortho-PCBs (FIG. 4) and the AROCLORS (FIG. 5) was established by directly comparing the resulting activity to that produced by a maximally inducing dose of TCDD (1 nM solubilized in DMSO) measured in the same instrument.

[1] = test system: Human 101L cells (recombinant HepG2), luciferase; conditions: Table 3 comparison, Postlind et al.; read-out: ED50 (the source's name); cited from earlier work
[2] = test system: Hepa1-BPRc1 cells (defective arnt protein); assay: TCDD-inducible luciferase activity, transient transfection with pGudLuc1.1; assay type: cell-based, mouse
Description: (§1) In general, the expression vectors pGudLuc1.0 and pGudLuc1.1 were prepared as follows. A 1330-bp HindIII fragment or an 1810-bp HindIII fragment isolated from the plasmid, pMpap1.0 or pMpap1.1, respectively (see, El-Fouly et al., supra), was subcloned into the HindIII site immediately upstream of the luciferase gene in the plasmid pGL2-basic (purchased from Promega).
(§2) More specifically, the following cells were obtained from the source indicated. Wild-type and AhR-defective (BPRc1 and TAO, respectively) mouse hepatoma (Hepa1c1c7) cells (Hepa1), derived from a C57B1 mouse liver tumor, were obtained from J. P. Whitlock, Jr. (Stanford University). These cells were grown as previously described by Miller et al. in "Biochemical and Genetic Analysis of Variant Mouse Hepatoma Cells Defective in the Induction of Benzo(a)pyrene Metabolizing Enzyme Activity", J. Biol. Chem., Vol. 258, pp. 3523-3527 (1983). Additionally, mouse hepatoma (MLE/BV) cells, derived from a spontaneously immortalized C3H/HeN mouse liver cell, were obtained from B. V. Madhukar (Indiana University School of Medicine, Indianapolis, Ind.) and were grown as described for the Hepa1 cells. Rat hepatoma (H4IIe) cells, guinea pig intestinal adenocarcinoma (GPC16) cells, hamster lung (AHL) cells, human hepatoma (HepG2) cells, human breast tumor (MCF7) cells, and human intestinal epithelial (LS180) cells were obtained from the American Type Culture Collection (Rockville, Md.). Until transfection, all of the cells were maintained according to their respective cell-type-specific culture protocols.
(§3) Transfection was accomplished as follows. Using polybrene as previously described by Helferich et al. in "Photooxidized Products of Tryptophan Can Act as Dioxin Agonists", Mol. Pharmacol., Vol. 40, pp. 674-678 (1991), plates of cells (approximately 80% confluent) were transiently transfected with the desired plasmid (15 μg). Then, the transfected cells were allowed to grow for 48 hours, followed by the addition of either DMSO (1 μl/ml) or TCDD (1 nM) solubilized in DMSO, which was followed by incubation for 24 hours. Next, the plates were transferred onto ice, and the media were removed, after which the plates were rinsed twice with cold PBS. Then, 200 μl of luciferase lysis buffer (purchased from Promega) was used to lyse the cells. The lysed cell samples were collected and transferred into a microfuge tube. Cell debris was pelleted by centrifugation, and the supernatants were collected. The supernatant samples were assayed for TCDD-inducible luciferase activity in the following manner.
(§4) Using the stabilized luciferase assay system (purchased from Promega), luciferase activity in an aliquot of the cleared lysed cell supernatant (20 μl) was determined by mixing it with 100 µl of luciferase assay reagent (purchased from Promega) and measuring the resulting luminescence in a Turner Luminometer or Dynatech ML3000 microplate luminometer (light output was integrated over 1 minute after a delay time of 30 seconds).
(§5) Using a microplate adaptation of the method reported by Bradford in "A Rapid Sensitive Method for the Quantitation of Microgram Quantities of Protein Utilizing the Principle of Protein-Dye Binding", Anal. Biochem., […], pp. 248-254 (1976), luciferase activity was standardized to the protein concentration of the supernatant (with bovine serum albumin as the protein standard). Because of instrument differences in luminescence measurement and data output, luciferase activity was determined as relative light units (RLU) per microgram of protein, which was converted to milligram of protein as reported in the Tables below.

[3] = test system: Hepa1-TAO cells (reduced levels of AhR); assay: as above; assay type: cell-based, mouse
Description: as §1, §2, §3, §4, §5

MLE-BV cells = assay: as above; assay type: cell-based, mouse
Description: as §1, §2, §3, §4, §5

[4] = Mus musculus, Luc1.1, TCDD 1 nM vs DMSO

Clc1cc2c(cc1Cl)Oc1cc(Cl)c(Cl)cc1O2 [TCDD, 2,3,7,8-tetrachlorodibenzo-para-dioxin]
Induced luciferase activity, TCDD reference (H1L1.1 cells; instrument of FIG. 4): 2.25±0.6 | Induced luciferase activity, TCDD reference (H1L1.1 cells; instrument of FIG. 5): 0.95±0.07 | EC50 (H1L1.1 cells; Mus musculus, 24 h, FIG. 3): ~0.02 nM | fold induction at 0.001 µM (H1L1.1 cells; Mus musculus, by 1.0 nM TCDD, 24 h, FIG. 3, read-out: Maximal induction of luciferase activity): 80 | Dose dependence of luciferase induction (H1L1.1 cells; TCDD, 24 h, FIG. 3): dose dependent | EC50 [1]: 0.35 nM | Luciferase activity, TCDD in DMSO ([2]; Luc1.1, TCDD 1 nM, 24 h): 0.8 RLU/mg protein | fold induction [2, 4]: 1.6 | Induction of luciferase activity ([2]; pGudLuc1.1, TCDD 1 nM): failure of TCDD treatment to induce luciferase activity | Luciferase activity, TCDD in DMSO ([3]; Luc1.1, TCDD 1 nM, 24 h): 1.8 RLU/mg protein | fold induction [3, 4]: 4.5 | Inducibility of luciferase activity ([3]; pGudLuc1.1, TCDD 1 nM): reduced inducibility | Luciferase activity, TCDD in DMSO (MLE-BV cells; Luc1.1, TCDD 1 nM, 24 h): 13.2 RLU/mg protein | fold induction (MLE-BV cells; [4]): 66
